The values below are quoted from earlier work in US20030114415A1, “Compositions and methods for treating and preventing memory impairment using citicoline” (priority 2001, published 2003).

Read-outs that look alike come from different tables or passages of the source.

The conditions of data set [1]: human; 1000 mg citicoline per day.
For data set [2] the following is noted: rat; 500 mg/kg/day citicoline.
Data set [3] concerns stroke and head trauma patients.

Regarding `C[N+](C)(C)CCOP(=O)(O)OP(=O)([O-])OC[C@H]1O[C@@H](n2ccc(N)nc2=O)[C@H](O)[C@@H]1O` [citicoline, cytidine-5′-diphosphocholine], the plasma choline concentration in data set [1] and in data set [2] was 1.5 ng/mL each time. Where the note is “oral”, the “absorption when administered orally” value was “absorbed almost completely”. Also, under “oral compared with intravenous”, the “bioavailability when administered orally” value is recorded as “approximately the same as when administered intravenously”. Moreover, in data set [3] (patients, 500 mg per day), the “negative side effects, including dizziness” value is “minimizing any negative side effects”. Besides, the tolerability result in data set [3] (stroke and head trauma patients, 250 mg/day to 1000 mg/day for several weeks) is given as “tolerated citicoline well”.
